Test results: article PMC8945123 (ACS Omega, 2022)
Several values for one entry are separate records, joined by “and”; a condition that tells them apart may be missing. Equal values may be shown once. Entries after “also recorded” stand apart in the source; their conditions may differ. Read-outs that look alike come from different tables or passages of the source.

Tests used:
hMAO-A = target: T1, hMAO-A (Homo sapiens, UniProt P21397); experiment: In vitro inhibition of recombinant human MAO-A, fluorometric; assay type: biochemical; settings: for IC50 (μM) ± SEM hMAO-A: mean ± SEM (n = 3)
T1 sequence (P21397 1-527): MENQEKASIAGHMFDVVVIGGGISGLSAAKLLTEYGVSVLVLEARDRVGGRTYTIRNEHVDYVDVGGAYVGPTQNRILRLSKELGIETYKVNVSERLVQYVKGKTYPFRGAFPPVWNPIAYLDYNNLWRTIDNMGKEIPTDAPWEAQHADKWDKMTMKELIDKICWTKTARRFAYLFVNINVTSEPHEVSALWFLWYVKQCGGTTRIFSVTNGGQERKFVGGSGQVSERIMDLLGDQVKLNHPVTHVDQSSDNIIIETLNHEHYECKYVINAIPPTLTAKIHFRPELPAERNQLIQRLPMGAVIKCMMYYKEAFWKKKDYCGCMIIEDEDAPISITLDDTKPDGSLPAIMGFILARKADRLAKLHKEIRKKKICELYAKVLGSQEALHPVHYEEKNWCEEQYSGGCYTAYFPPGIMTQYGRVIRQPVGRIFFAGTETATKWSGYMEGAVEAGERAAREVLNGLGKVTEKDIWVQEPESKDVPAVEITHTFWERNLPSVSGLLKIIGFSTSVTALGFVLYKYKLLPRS

eeAChE = eeAChE (Electrophorus electricus, UniProt O42275); experiment: In vitro eeAChE inhibition, Ellman's method; assay type: biochemical; settings: for IC50: mean ± SEM (n = 3)
Sequence of eeAChE (O42275 24-633): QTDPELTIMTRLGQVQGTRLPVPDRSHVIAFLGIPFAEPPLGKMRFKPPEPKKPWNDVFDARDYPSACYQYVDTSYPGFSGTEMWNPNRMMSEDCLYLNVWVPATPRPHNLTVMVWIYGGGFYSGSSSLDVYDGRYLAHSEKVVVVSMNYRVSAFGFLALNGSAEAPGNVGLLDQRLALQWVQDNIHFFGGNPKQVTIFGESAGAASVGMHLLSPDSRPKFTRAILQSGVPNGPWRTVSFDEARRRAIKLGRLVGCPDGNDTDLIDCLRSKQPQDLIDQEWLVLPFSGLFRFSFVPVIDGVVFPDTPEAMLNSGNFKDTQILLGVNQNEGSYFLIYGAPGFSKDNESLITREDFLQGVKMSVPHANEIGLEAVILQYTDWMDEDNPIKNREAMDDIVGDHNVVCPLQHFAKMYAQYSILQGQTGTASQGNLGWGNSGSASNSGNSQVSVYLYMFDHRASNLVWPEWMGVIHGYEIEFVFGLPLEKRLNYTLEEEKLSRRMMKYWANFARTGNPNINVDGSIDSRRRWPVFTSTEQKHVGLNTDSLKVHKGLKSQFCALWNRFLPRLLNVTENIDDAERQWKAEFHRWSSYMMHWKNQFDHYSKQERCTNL

eqBChE = eqBChE (Equus caballus, UniProt P81908); experiment: In vitro eqBChE inhibition, Ellman's method; assay type: biochemical
Sequence of eqBChE (P81908 whole entry): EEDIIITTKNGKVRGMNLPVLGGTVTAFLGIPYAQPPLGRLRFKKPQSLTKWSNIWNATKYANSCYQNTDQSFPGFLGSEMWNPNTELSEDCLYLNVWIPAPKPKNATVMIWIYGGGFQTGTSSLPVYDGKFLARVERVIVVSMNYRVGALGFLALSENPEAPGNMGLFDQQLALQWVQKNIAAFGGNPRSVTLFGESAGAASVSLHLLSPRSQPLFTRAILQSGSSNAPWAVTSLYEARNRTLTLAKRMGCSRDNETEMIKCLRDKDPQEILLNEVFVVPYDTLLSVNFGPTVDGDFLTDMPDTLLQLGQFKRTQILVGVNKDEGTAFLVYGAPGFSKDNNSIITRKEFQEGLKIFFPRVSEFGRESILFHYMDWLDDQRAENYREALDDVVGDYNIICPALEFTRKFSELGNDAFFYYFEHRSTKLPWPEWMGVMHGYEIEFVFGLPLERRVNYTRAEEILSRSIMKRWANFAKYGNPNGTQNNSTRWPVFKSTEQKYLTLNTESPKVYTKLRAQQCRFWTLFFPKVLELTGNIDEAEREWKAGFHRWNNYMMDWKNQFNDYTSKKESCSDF

hMAO-B = target: T2, hMAO-B (Homo sapiens, UniProt P27338); experiment: In vitro inhibition of recombinant human MAO-B, fluorometric; assay type: biochemical
T2 sequence (P27338 1-520): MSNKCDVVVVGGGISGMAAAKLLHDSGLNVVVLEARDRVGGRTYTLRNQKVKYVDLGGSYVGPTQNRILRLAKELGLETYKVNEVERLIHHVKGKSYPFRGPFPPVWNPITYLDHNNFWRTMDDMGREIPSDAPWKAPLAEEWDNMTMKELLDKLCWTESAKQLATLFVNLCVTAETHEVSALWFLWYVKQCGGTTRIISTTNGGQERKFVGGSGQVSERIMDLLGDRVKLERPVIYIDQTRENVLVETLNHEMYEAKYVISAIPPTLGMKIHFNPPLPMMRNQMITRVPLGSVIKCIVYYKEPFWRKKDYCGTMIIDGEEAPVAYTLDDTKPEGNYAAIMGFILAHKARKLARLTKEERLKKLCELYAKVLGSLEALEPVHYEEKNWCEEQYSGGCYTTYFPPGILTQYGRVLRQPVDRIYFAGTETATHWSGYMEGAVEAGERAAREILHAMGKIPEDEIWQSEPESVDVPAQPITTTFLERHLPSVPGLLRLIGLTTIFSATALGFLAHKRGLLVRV

animals = experiment: Acute oral toxicity in animals; assay type: in vivo; settings: doses from 50 to 2000 mg/kg body weight, eight animals per group
[1] = PAMPA-BBB permeation assay; settings: prediction of BBB penetration from Pe
[2] = Neurotoxicity MTT assay on neuroblastoma SH-SY5Y cells; assay type: cell-based; settings: human
acetylcholinesterase = acetylcholinesterase (Electrophorus electricus, UniProt O42275); experiment: Kinetic analysis of AChE inhibition; assay type: biochemical
Sequence of acetylcholinesterase (O42275 24-633): as the sequence (O42275 24-633) above

Row | Structure (SMILES) | IC50 (hMAO-A) [µM] | SI = selectivity index = IC50 of eqBChE/IC50 of eeAChE (eeAChE) | IC50 (eeAChE; IC50 (μM) ± SEM eeAChE) | IC50 (eqBChE) [µM] | IC50 (hMAO-B) [µM] | SI = selectivity index = IC50 of hMAO-A/IC50 of hMAO-B (hMAO-B) | prediction (PAMPA-BBB) (CNS+, CNS–) [1] | other results
1 | CC1(C)CC(=O)C2=C(C1)N=c1s/c(=C\c3c[nH]c4ccccc34)c(=O)n1C2c1c[nH]c2ccccc12 (centres unmarked) [Compound 26] | 0.57 ± 0.08 | 3.1 | 6.21 ± 0.16 µM | 19.3 ± 1.14 | 0.24 ± 0.01 | 2.4 | – | –
2 | O=C1CC(c2ccccc2)CC2=C1C(c1c[nH]c3ccccc13)n1c(s/c(=C\c3c[nH]c4ccccc34)c1=O)=N2 (centres unmarked) [Compound 27] | 9.36 ± 1.01 | 14.1 | – | 13.7 ± 1.21 | 0.47 ± 0.01 | 19.9 | – | IC50 (eeAChE; read-out: IC50 (μM) ± SEM eeAChE): 0.97 ± 0.1 µM
3 | COc1ccc(C2CC(=O)C3=C(C2)N=c2s/c(=C\c4c[nH]c5ccccc45)c(=O)n2C3c2c[nH]c3ccccc23)cc1 (centres unmarked) [Compound 28] | 36.9 ± 1.22 | 11.8 | 0.89 ± 0.1 µM | 10.5 ± 1.09 | 0.31 ± 0.01 | 119.2 | – | –
4 | O=C1CCCC2=C1C(c1c[nH]c3ccccc13)n1c(s/c(=C\c3ccc(OCc4ccccc4)cc3)c1=O)=N2 (centres unmarked) [Compound 30] | 0.48 ± 0.03 | 1.9 | 4.67 ± 0.29 µM | 8.97 ± 0.77 | 0.37 ± 0.01 | 1.3 | – | acute toxicity (survival, clinical signs) (animals): All animals were found alive
5 | CC1(C)CC(=O)C2=C(C1)N=c1s/c(=C\c3ccc(OCc4ccccc4)cc3)c(=O)n1C2c1c[nH]c2ccccc12 (centres unmarked) [Compound 31] | 0.63 ± 0.04 | 3.7 | 3.71 ± 0.11 µM | 13.9 ± 0.99 | 0.38 ± 0.01 | 1.6 | – | –
6 | O=C1CC(c2ccccc2)CC2=C1C(c1c[nH]c3ccccc13)n1c(s/c(=C\c3ccc(OCc4ccccc4)cc3)c1=O)=N2 (centres unmarked) [Compound 32] | 11.2 ± 1.3 | 1.9 | 0.86 ± 0.14 µM | 1.7 ± 0.11 | 0.81 ± 0.01 | 13.9 | – | –
7 | COc1ccc(C2CC(=O)C3=C(C2)N=c2s/c(=C\c4ccc(OCc5ccccc5)cc4)c(=O)n2C3c2c[nH]c3ccccc23)cc1 (centres unmarked) [Compound 33] | 48.4 ± 2.28 | 1.3 | 0.79 ± 0.09 µM | 1.01 ± 0.06 | 0.67 ± 0.01 | 72.2 | – | –
8 | O=C1CCCC2=C1C(c1c[nH]c3ccccc13)n1c(s/c(=C\c3ccc(OCCNCCc4c[nH]c5ccccc45)cc3)c1=O)=N2 (centres unmarked) [Compound 34] | 1.5 ± 0.01 | 3.7 | 0.12 ± 0.01 µM | 0.44 ± 0.01 | 0.28 ± 0.01 | 5.3 | – | –
9 | CC1(C)CC(=O)C2=C(C1)N=c1s/c(=C\c3ccc(OCCNCCc4c[nH]c5ccccc45)cc3)c(=O)n1C2c1c[nH]c2ccccc12 (centres unmarked) [Compound 35] | 1.93 ± 0.01 | 15.0 | 0.04 µM and 0.042 µM | 0.63 ± 0.07 | 0.33 ± 0.01 | 5.8 | CNS+ (‘CNS+’ (prediction of high BBB permeation); Pe (10^–6 cm/s) > 4.39) | acute toxicity (survival, clinical signs) (animals): All animals were found alive; viability at 1 µM [2]: 98.9 ± 1.23%; viability at 10 µM [2]: 95.2 ± 1.54%; viability at 20 µM [2]: 94.9 ± 1.01%; viability at 40 µM [2]: 91.6 ± 1.59%; Ki (acetylcholinesterase): 0.012 µM; type of inhibition (acetylcholinesterase; Lineweaver–Burke double reciprocal plot): mixed inhibition mode; also recorded: mixed-type inhibition
10 | O=C1CC(c2ccccc2)CC2=C1C(c1c[nH]c3ccccc13)n1c(s/c(=C\c3ccc(OCCNCCc4c[nH]c5ccccc45)cc3)c1=O)=N2 (centres unmarked) [Compound 36] | – | 17.2 | 0.081 ± 0.03 µM | 1.39 ± 0.06 | 0.1 ± 0.01 | – | – | IC50 (μM) ± SEM hMAO-A (hMAO-A): not able to show MAO-A inhibition activity at tested concentration
11 | COc1ccc(C2CC(=O)C3=C(C2)N=c2s/c(=C\c4ccc(OCCNCCc5c[nH]c6ccccc56)cc4)c(=O)n2C3c2c[nH]c3ccccc23)cc1 (centres unmarked) [Compound 37] | – | 14.2 | 0.07 µM and 0.069 µM | 0.98 ± 0.11 | 0.14 ± 0.01 | – | CNS+ (‘CNS+’ (prediction of high BBB permeation); Pe (10^–6 cm/s) > 4.39) | acute toxicity (survival, clinical signs) (animals): All animals were found alive; IC50 (μM) ± SEM hMAO-A (hMAO-A): not able to show MAO-A inhibition activity at tested concentration; viability at 1 µM [2]: 96.1 ± 0.98%; viability at 10 µM [2]: 92.1 ± 1.09%; viability at 20 µM [2]: 90.33 ± 0.83%; viability at 40 µM [2]: 88.2 ± 1.55%
12 | Cc1nnc2n1-c1ccc(Cl)cc1C(c1ccccc1)=NC2 [alprazolam] | – | – | – | – | – | – | CNS+ (‘CNS+’ (prediction of high BBB permeation); Pe (10^–6 cm/s) > 4.39) | –
13 | NCCc1ccc(O)c(O)c1 [dopamine] | – | – | – | – | – | – | CNS- (“CNS-” (prediction of low BBB permeation); Pe (10^–6 cm/s) < 1.78) | –
14 | CCn1cc(C(=O)O)c(=O)c2cc(F)c(N3CCNC(C)C3)c(F)c21 (centres unmarked) [lomefloxacin] | – | – | – | – | – | – | CNS- (“CNS-” (prediction of low BBB permeation); Pe (10^–6 cm/s) < 1.78) | –
15 | CC(=O)[C@H]1CC[C@H]2[C@@H]3CCC4=CC(=O)CC[C@]4(C)[C@H]3CC[C@]12C [progesterone] | – | – | – | – | – | – | CNS+ (‘CNS+’ (prediction of high BBB permeation); Pe (10^–6 cm/s) > 4.39) | –
